Measured values as given in patent US20110217293A1, “Uses of morelloflavone” (priority 2008, published 2011).
Entries after “also recorded” stand apart in the source; their conditions may differ.

Experiments:
[1] = system: vascular smooth muscle cells; assay: Cell cycle analysis by flow cytometry; type: cell-based, mouse; conditions: concentrations up to 10 mM (10 μM), 24 hr
Procedure: Mouse vascular smooth muscle cells, isolated as described (13), were maintained in 231 media (Cascade Biologics, Portland, Oreg.) supplemented with SMGS (Cascade Biologics) in a humidified incubator at 37° C. with 5% CO2. Cells from passages 4-9 were used in all experiments. All experiments were performed in subconfluent, unsynchronized cells growing in SMGS except for the lamellipodium formation assay.
Vascular smooth muscle cells (1×106) were seeded onto 10-cm dishes and treated with various concentrations of morelloflavone. After 24 hr incubation, the cells were fixed with 70% ethanol at 4° C. overnight, treated with RNAse in PBS, stained with propidium iodide (Sigma, St. Louis, Mo.), and subjected to flow cytometric DNA content analysis using Epics XL (Beckman-Coulter, Miami, Fla.). The percentages of cells in G1, S, and G2/M phases were determined using Multi-cycle system software (Phoenix Flow System, San Diego, Calif.).

[2] = Body weight in carotid artery injury study; type: in vivo, mouse; conditions: apoE−/− mice
Procedure: The carotid artery injury assay was performed as described by Kuhel (16). Male apoE−/− mice were obtained from Jackson Laboratory (Bar Harbor, Me.) and maintained on a 12 hour light/dark cycle. All animal experimentation protocols were performed under institutional guidelines of animal welfare, in accordance with NIH guidelines. Mice were fed either normal rodent chow diet (5001, LabDiet) (n=10) or normal chow diet containing 0.15% morelloflavone (w/w) (n=9). This diet corresponded to 200 mg/kg morelloflavone if a 30 gm mouse consumes 4 grams of chow. Mice were placed on these diets for 7 days before they underwent carotid artery denudation by the insertion of an epoxy resin (Epon) probe as described (16).

Ldlr−/−Apobec1−/− mice = assay: Analysis of atherosclerotic lesions (en-face and cross-sectional); type: in vivo, mouse; conditions: 8 months
Procedure: As a model of in vivo athereosclerosis, mice that lack the low density lipoprotein (LDL) receptor and Apobec 1 genes (Ldlr^−/−Apobec1^−/−) were used. The Ldlr^−/−Apobec1^−/− mice were generated by crossbreeding Ldlr^−/− mice (Jackson Lab, Bar Harbor, Me.) and Apobec1^−/− mice (Dr. Lawrence Chan, Baylor College of Medicine). Genotyping was performed in standard PCR-based methods, using following primer sets: For Apobec1, 5′-TGAGTGAGTGGTGGTGGTAAAG-3′ (SEQ ID NO: 1) and 5′-CGAAATTCCTCCAGCAGTAAC-3′ (SEQ ID NO: 2) where […] and […] mice would have 475 by amplicon while Apobec1^−/− have none. For Ldlr, 5′-ACCCCAAGACGTGCTCCCAGGATGA-3′ (SEQ ID NO: 3), 5′-CGCAGTGCTCCTCATCTGACTTGT-3′ (SEQ ID NO: 4), 5′-AGGATCTCGTCGTGACCCATGGCGA-3′ (SEQ ID NO: 5), and 5′-GAGCGGCGATACCGTAAAGCACGAGG-3′ (SEQ ID NO: 6) where Ldlr^+/+ mice would yield 383 bp amplicon, while Ldlr^−/− 200 bp and […] amplicons, respectively.
Twenty four (24) 8 week old Ldlr^−/−Apobec1^−/− mice were randomly assigned to either control group (normal rodent chow, Lab Diet, Richmond, Ind., N=12) or morelloflavone group (normal rodent chow supplemented with 0.003% (w/w) morelloflavone, N=12). The 0.003% (w/w) morelloflavone corresponds to approximately 4 mg/kg morelloflavone for 30 gram animals that consume 4 grams of chow. Animals were housed individually in an air-conditioned room with 12-h light/dark cycle with access to food and water. Body weight of these mice was monitored monthly. After 8 months, animals were sacrificed for analyses of atherosclerosis. Just prior to the sacrifice, blood was sampled from the heart and collected into micro-centrifuge tubes containing EDTA. The entire aortae were excised. All animal experimentation protocols were performed according to the protocol approved by the Institutional Animal Care and Use Committee (IACUC) of the University of Texas Health Science Center at Houston, in accordance with the National Institutes of Health guidelines.
The aortae and hearts were excised en bloc. The extent and degree of atherosclerosis was quantified by both en-face analyses of atherosclerosis lesions and the intimal areas of the ascending aortae at the level of aortic valve leaflet. For en-face analysis of atherosclerotic areas, the distal portion of the ascending aortae, aortic arches, and descending aortae down to the liac bifurcations were pinned flat on a white wax surface, fixed with 10% (v/v) buffered formalin solution overnight, stained by freshly prepared and filtered Oil red O solution for 1 hr, rinsed twice with 78% methanol, mounted and dried on the glass slides, and scanned in the TIFF format using the ScanScope slide scanning system (Nikon, Melville, N.Y.). The planimetry of the entire surface areas and Oil red O-positive atherosclerotic lesion areas was performed on the scanned images using Sigma Scan Pro software (SPSS Science, Chicago, Ill.).
For the cross sectional analyses of atherosclerosis, the roots of the ascending aortae were embedded in OCT compound (Tissue-Tek®, Sakura-Fineteck U.S.A., Torrance, Calif.). […] In both methods of atherosclerosis quantification, the images of aortae were digitally captured and stored in the TIFF format, using the ScanScope slide scanning system (Nikon, Melville, N.Y.). The quantification of the atherosclerotic area was performed by Image J software (NIH, Bethesda, Md.) and expressed at lesion areas (μm^2).

[3] = system: plasma lipid peroxidation; assay: Thiobarbituric acid reactive substances (TBARS) assay; type: in vivo, mouse; conditions: treated Ldlr−/−Apobec1−/− mice, N=12
Procedure: EDTA-added mouse plasma was stored at −80° C. until the assay. The assay was performed using a commercially available kit according to the manufacturer's instructions. The degree of plasma lipid peroxidation was expressed in terms of equivalent malondialdehyde (MDA) concentration (Cayman Chemical Co., Ann Arbor, Mich.).

With O=C1c2c(O)cc(O)cc2O[C@H](c2ccc(O)cc2)[C@H]1c1c(O)cc(O)c2c(=O)cc(-c3ccc(O)c(O)c3)oc12 [morelloflavone, 5,7, 4′, 5″, 7″, 3″, 4″-heptahydroxy-[3,8″]-flavonylflavanone] the “effect on cell cycle progression” value [1] was “did not significantly affect; also recorded: does not affect cell cycle progression”, the Body weight ([2]; at the time of sacrifice) was 23.3 ± 1.5 g and the Body weight ([2]; before injury) was 24.0 ± 2.0 g. For the same molecule, the “atherosclerotic surface area, en-face analysis” value (Ldlr−/−Apobec1−/− mice; 0.003% (w/w) diet (0.03%), male Ldlr−/−Apobec1−/− mice) was 24.9±6.9 % of the total aortic surface area, the “atherosclerotic lesion area, cross-sectional analysis at aortic valve” value (Ldlr−/−Apobec1−/− mice; 0.003% diet) was 5.65±1.05 ×10^3 μm^2 and the “reduction of cross-sectional lesion area vs control” value (Ldlr−/−Apobec1−/− mice; 0.003% diet) was 26%. For the same molecule, the “reduction of en-face atherosclerotic area vs control” value (Ldlr−/−Apobec1−/− mice; 0.003% diet) was 26%, the “total area affected by atherosclerosis compared with control mice (en face)” value (Ldlr−/−Apobec1−/− mice; 0.003% morelloflavone-containing diet) was “substantially lower” and the “Thiobarbituric acid reactive substances concentration (plasma)” value [3] was 6.33 ± 1.47 µM.
